What was measured:
[1] = test system: brown marmorated stink bug; settings: cited from earlier work
[2] = test system: individual sensillum (olfactory receptor neurons) on the brown marmorated stink bug antenna; assay: electrophysiological recording from an individual antennal sensillum in response to an olfactory stimulus; set-up: species or system Halyomorpha halys; settings: 2 second stimulus, 100 μg dosage load in ethanol, versus 2 second control stimulus; FIG. 3
Text: Many aspects of insect behavior are mediated by olfactory signals. These olfactory signals are detected by sensory structures called sensilla which are innervated by olfactory receptor neurons and are located on various parts of the insect body including the antenna, mouthparts and tarsi. It is possible to determine the capabilities of the peripheral sensory system by using electrophysiology methods. Basically, extracellular neural responses from the individual receptor neurons located in the sensilla on the antenna of the stinkbug can be electrically recorded in response to stimulation with various concentrations of olfactory odorants.
Details of the recording methodology for insects have been described previously. […] The action potentials within this sensillum can then be monitored and recorded. […] Electrical signals obtained from the neurons within the sensillum are band-passed filtered (300-3K Hz), amplified (1000×) and analyzed using commercial software, Autospike (Syntech, Hilversum, The Netherlands). […]
FIG. 3 represents screen shots of the analysis of the above trace (FIG. 2) from the software that used to analyze the electrophysiological data. […] In the histograms, each bar represents the number of impulses calculated for a metric of impulse size.

Compound	attraction by itself ([1]; early season trials)	cross-attraction of the brown marmorated stink bug ([1]; in vivo)	attraction of adults ([1]; late in the season)	number of impulses (activity) in stimulus histogram compared to control histogram [2]
CCC\C=C/C=C/C=C/C(=O)OC [methyl (2E,4E,6Z)-decatrienoate]	not attractive by itself	cross-attractive	reliably attracted	–
ethyl (2E,4E,6Z)-decatrienoate	–	–	–	more activity in the bottom stimulus histogram as compared to the top control histogram
